The structures appear in SMILES notation.

This is an account of results in patent US20230241088A1, “COMPOSITION FOR PREVENTING OR TREATING LUNG CANCER COMPRISING ORTHO-TOPOLIN RIBOSIDE AS ACTIVE INGREDIENT” (CHUNG-ANG UNIVERSITY INDUSTRY-ACADEMY COOPERATION FOUNDATION, priority 2022, published 2023).

Holding throughout (assay type): cell-based, Human
For assay [1], the system named is A549. Kind of assay: MTT cell viability assay, A549. The method, then:
(§1) Human NSCLC cell lines A549, H1437, H2087, H522, and HCC827 were obtained from the Korean Cell Line Bank (KCLB, Seoul, Korea). These cells were cultured in RPMI-1640 medium (Gibco, N.Y., USA) supplemented with 10% FBS (Gibco) and 1% penicillin-streptomycin (HyClone Laboratories, Logan, Utah, USA). All cell lines were cultured under standard conditions (5% CO2, humid environment, 37° C.). A549 cells were seeded at a density of 1×10^4 cells/well and H1437, H2087, H522, HCC827, and MRCS cells at a density of 2×10^4 cells/well in 96-well plates and were cultured until cells reach approximately 70-80% confluency. The NSCLC cells were treated with plant hormones for 48 hours. Stock solution of each plant hormone was diluted with culture medium, wherein concentrations of DMSO, water, methanol, and ethanol in the culture medium were below 1% (v/v). The half-maximal inhibitory concentration (IC50) was calculated using CompuSyn software (ComboSyn Inc., Paramus, N.J., USA).
(§2) The inhibitory effect of plant hormones and their derivatives was investigated on 5 NSCLC cell lines (A549, H1437, H2087, H522, and HCC827). The NSCLC cells were treated with ABA, Cor, ethephon, GR-24, IAA, KR, MJ, N6b, N6i, oTR, and SS-HCS at concentrations of 0.1, 0.5, 1, 5, 10, 50, and 100 μM. Cell viability and IC50 values for 48 hours were investigated by performing the MTT assay.

For assay [2], the system named is H1437. Kind of assay: MTT cell viability assay, H1437. The procedure: as §1, §2
Assay [3] relates to H2087. Kind of assay: MTT cell viability assay, H2087. The procedure:
as §1, §2
In general terms: Tetrazolium assays rely on reduction of a dye to a coloured formazan, in cell work by metabolically active cells.

Assay [4] deals with H522. Kind of assay: MTT cell viability assay, H522. The method, then: as §1, §2
Assay [5] has as its system HCC827. The experiment in a line: MTT cell viability assay, HCC827. The method, then:
as §1, §2

Assay [6] relates to NSCLC cells. Kind of assay: MTT cell viability assay, NSCLC cells overall. Particulars: Homo sapiens; 48 hours, MTT assay, 5 NSCLC cell lines. The method, then:
as §1, §2

Setting [7] is: Homo sapiens, NCI-H1437, 48 hours.
Setting [8] is: Homo sapiens, NCI-H2087, 48 hours.
Where [9] appears, read: Homo sapiens, NCI-H522, 48 hours.

Usually IC50 stands for the concentration needed to halve the response being measured. The low end stands for greater potency in that assay, the high end for weaker potency in that assay. For `CC1=CC(=O)CC(C)(C)[C@@]1(O)/C=C/C(C)=C\C(=O)O` [ABA, abscisic acid], the IC50 was > 100 µM in assay [1] (Homo sapiens, A549, 48 hours); > 100 µM in assay [2] (setting [7]); > 100 µM in assay [3] (setting [8]); > 100 µM in assay [4] (setting [9]); > 100 µM in assay [5] (Homo sapiens, HCC827, 48 hours).

Turning to `CC[C@H]1C=C(C(=O)N[C@@]2(C(=O)O)C[C@@H]2CC)[C@H]2CCC(=O)[C@H]2C1` [Cor, coronatine], the IC50 in assay [1] (48 hours), in assay [2] (48 hours), in assay [3] (48 hours), in assay [4] (48 hours) and in assay [5] (48 hours) was > 100 µM throughout.

As to `O=P(O)(O)CCCl` [Ethephon, ethephon], the IC50 was > 100 µM in assay [1] (Homo sapiens, A549, 48 hours); > 100 µM in assay [2] (setting [7]); > 100 µM in assay [3] (setting [8]); > 100 µM in assay [4] (setting [9]); > 100 µM in assay [5] (Homo sapiens, HCC827, 48 hours).

`CC1=C[C@H](O/C=C2/C(=O)O[C@@H]3c4ccccc4C[C@H]23)OC1=O` [GR-24, Gerald Rosebery-24]: the IC50 in assay [1] (48 hours), in assay [2] (48 hours), in assay [3] (48 hours), in assay [4] (48 hours) and in assay [5] (48 hours) was > 100 µM each time.

In the case of `OC[C@H]1O[C@@H](n2cnc3c(NCc4ccco4)ncnc32)[C@H](O)[C@@H]1O` [KR, Kinetin riboside], the IC50 was 12.3 ± 1.42 µM in assay [1] (Homo sapiens, A549, 48 hours); 76.8 ± 13.7 µM in assay [2] (setting [7]); 98.5 ± 6.72 µM in assay [3] (setting [8]); 73 ± 10.9 µM in assay [4] (setting [9]); 33.13 ± 0.14 µM in assay [5] (Homo sapiens, HCC827, 48 hours); < 100 µM in assay [6].

Turning to `CC/C=C\CC1C(=O)CCC1CC(=O)OC` (stereo not shown) [MJ, methyl jasmonate], the half-inhibitory concentration (IC50) in assay [1] (Homo sapiens, A549, 48 hours) was > 100 µM; in assay [2] (setting [7]) it was > 100 µM; in assay [3] (setting [8]), > 100 µM; in assay [4] (setting [9]), > 100 µM; in assay [5] (Homo sapiens, HCC827, 48 hours), > 100 µM.

`OC[C@H]1O[C@@H](n2cnc3c(NCc4ccccc4)ncnc32)[C@H](O)[C@@H]1O` [N^6b, N^6-benzyladenosine, reference compound]: the IC50 in assay [6] is < 100 µM.

On to `CC[C@@H](C(C)C)[C@@H](O)[C@H](O)[C@@H](C)[C@H]1CC[C@H]2[C@@H]3CC(=O)[C@H]4C[C@H](O)[C@H](O)C[C@]4(C)[C@H]3CC[C@]12C` [SS-HCS, SS-homocastasterone], for which the IC50 in assay [1] (48 hours) is 87.5 ± 15.5 µM; in assay [2] (48 hours), 34.7 ± 2.04 µM; in assay [3] (48 hours), 85.4 ± 8.81 µM; in assay [4] (48 hours) it was > 100 µM; in assay [5] (48 hours), 72.3 ± 13.6 µM.
